{"source": "patent US20120014950A1", "about": "“Antibodies That Specifically Bind to DR3” (Xencor, Inc., priority 2010, published 2012)", "key": {"[1]": {"tested_on": "collagen induced arthritis (CIA) mice", "experiment": "Murine collagen induced arthritis (CIA) model", "assay_type": "in vivo, DBA/1JLacJ mice", "settings": "i.p., 200 μg (dexamethasone 50 μg)", "procedure": "In general CIA was induced using the following protocol. Male DBA/1JLacJ mice (8-10 weeks) were injected intradermally (i.d.) at the base of the tail with […] of type II bovine collagen (CII) and complete Freund's adjuvant (CFA) at a final concentration of 4 mg/ml on Day 1. Mice were given a second injection i.d. with CII and CFA on Day 21. On days 21, 28, 35, and 42, mice were treated prophylactically with 200 μg intraperitoneal (i.p.) of the therapeutic molecules, anti-TNF-α antibody (R&D systems, cat #AB-410-NA) or D06-Fab-MSA. In addition, a control group of mice was not treated with a therapeutic molecule (“No Treatment”) and a second control group was treated with 50 μg dexamethasone i.p. every other day (e.o.d.) (“Dexamethasone”). The animals were scored every other day until the experiment was terminated on Day 46.\nIn a separate experiment, on days 21, 28, 35, and 42, CIA-mice were treated prophylactically with 200 μg intraperitoneal (i.p.) of either 2D9-Fab-MSA, or 5D10-Fab-MSA. In addition, a control group of mice was treated with an isotype control antibody (IgG1). The animals were scored every other day until the experiment was terminated on Day 46. Clinical scores were determined as above.\nHistology was preformed to further determine the degree of inflammation as well as potential bone erosion in these animals. […]"}, "DR3 receptor": {"target": "T1, DR3 receptor (Homo sapiens, UniProt Q93038)", "T1 construct": "endogenous in cells; host or cells: TF-1 (premyeloid)", "T1 sequence (Q93038 25-417)": "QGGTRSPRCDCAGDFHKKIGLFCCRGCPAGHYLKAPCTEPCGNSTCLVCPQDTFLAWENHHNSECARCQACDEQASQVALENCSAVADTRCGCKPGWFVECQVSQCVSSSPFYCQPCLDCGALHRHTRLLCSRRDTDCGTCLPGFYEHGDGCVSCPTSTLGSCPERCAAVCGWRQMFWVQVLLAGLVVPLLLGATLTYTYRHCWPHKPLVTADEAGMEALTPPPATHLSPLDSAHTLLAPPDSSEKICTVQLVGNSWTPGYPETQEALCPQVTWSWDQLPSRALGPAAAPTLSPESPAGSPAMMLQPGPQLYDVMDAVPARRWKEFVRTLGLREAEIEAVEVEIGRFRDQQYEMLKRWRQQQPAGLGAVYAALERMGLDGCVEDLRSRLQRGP", "experiment": "TF-1 assay (cell viability, cycloheximide, Cell Titer Glo)", "assay_type": "cell-based", "settings": "TF-1 cells with cycloheximide; luminescence"}}, "data": [{"molecule": "C[C@@H]1C[C@H]2[C@@H]3CCC4=CC(=O)C=C[C@]4(C)[C@@]3(F)[C@@H](O)C[C@]2(C)[C@@]1(O)C(=O)CO", "note": "[Dexamethasone]", "values": [{"measurement": "% Arthritis Incidence at Day 42", "setting": "[1]", "value": 0, "unit": "%"}]}, {"molecule": "TL1A: human TL1A (TNFSF15), the natural ligand for DR3; positive control [reference compound]", "values": [{"measurement": "TF-1 cell viability / apoptosis induction (agonist, TL1A-like activity)", "setting": "DR3 receptor", "value": "induce apoptosis"}]}]}
